From paper PMC11587516 (ACS Chemical Neuroscience, 2024)
Substitutions are numbered along the chain they refer to. pIC50: −log10 of the molar value.

Experiments:
Type in all cases: cell-based
hBGT1 E52Y = target: T1, hBGT1 E52Y (Homo sapiens, UniProt P48065, E52Y); assay: [3H]GABA uptake assay, hBGT1 mutant E52Y in tsA201 cells
T1 construct: host or cells: tsA201 cells (transformed HEK293), transient expression
T1 sequence (P48065 1-614 E52Y): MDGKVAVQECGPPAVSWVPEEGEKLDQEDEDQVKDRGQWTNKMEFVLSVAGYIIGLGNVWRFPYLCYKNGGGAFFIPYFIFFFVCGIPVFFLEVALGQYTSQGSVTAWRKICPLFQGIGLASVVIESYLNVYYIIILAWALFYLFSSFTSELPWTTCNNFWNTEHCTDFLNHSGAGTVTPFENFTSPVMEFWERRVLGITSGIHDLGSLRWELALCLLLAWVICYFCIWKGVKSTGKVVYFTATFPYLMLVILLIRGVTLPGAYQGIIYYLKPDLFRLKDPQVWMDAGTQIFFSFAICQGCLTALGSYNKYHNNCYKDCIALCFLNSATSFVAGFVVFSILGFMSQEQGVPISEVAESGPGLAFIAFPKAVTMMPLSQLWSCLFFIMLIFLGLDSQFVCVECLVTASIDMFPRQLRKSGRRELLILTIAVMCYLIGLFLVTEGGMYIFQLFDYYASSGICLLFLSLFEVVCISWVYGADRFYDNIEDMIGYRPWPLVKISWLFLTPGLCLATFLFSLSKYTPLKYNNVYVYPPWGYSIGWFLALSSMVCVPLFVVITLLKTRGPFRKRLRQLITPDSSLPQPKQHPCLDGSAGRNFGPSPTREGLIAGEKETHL
Procedure: (§1) To validate the molecular modeling, particularly the crucial interactions with the Glu52 and Gln299 residues, the activity of compound 9 was tested on the following hBGT1 mutants: E52A, E52Y, Q299L, and the double mutant E52A+Q299L (Figure 5 and Table 1).[14]
(§2) The CHO cells were placed in 96-well plates (approximately 50,000 cells/well) for about 24 h before the experiment. […] After incubation, cells were washed 3 times with 100 μL/well ice-cold assay buffer, 150 μL/well MicroScint20 (PerkinElmer) was subsequently added before the plate was shaken for at least 1 h. The radioactivity of each well of the plate was measured on a TopCount NXT scintillation counter. […] Data presented are the pooled data of at least three independent experiments with three technical replicates if not stated otherwise in figure legends. Concentration–response curves were fitted by nonlinear regression to the sigmoidal concentration–response model with GraphPad Prism v 9.0.
(§3) The tsA201 cell line (a transformed HEK293 cell line) has been described previously and was cultured accordingly.[20] The tsA201 cells used for transient expression of hBGT1 mutants were transfected with DNA constructs (8 μg per 10 cm plate) using 40 μL of PolyFect transfection reagent according to the manufacturer’s protocol (Qiagen). […]

[1] = tested on: normal human astrocytes (NHA); assay: WST-1 viability and proliferation assay on normal human astrocytes; conditions: 1–100 μM in culture medium; 24 and 48 h
Procedure: Taking into account the presence of BGT1 and GAT3 transporters in astrocytes, we studied the effect of compound 9 on astrocyte viability, proliferation, and homeostasis. Normal human astrocytes (NHA) were treated with 1–100 μM compound 9 in a culture medium. The WST-1 assay was used to determine the number of metabolically active cells after 24 and 48 h of incubation. […] In the next step, a higher concentration (500 μM) of the compound and a longer incubation time (72 h) were applied, and the cells were examined by phase-contrast microscopy. […] Considering the results shown in Figure 6, compound 9 was not cytotoxic toward human astrocytes under in vitro culture conditions.
Gibco Human Astrocytes (Thermo Fisher Scientific) were maintained in a humidified 5% CO2 incubator at 37 °C. The cells were cultured in Gibco Astrocyte Medium (DMEM with GlutaMAX, N-2 Supplement, and OneShot Fetal Bovine Serum) supplemented with penicillin G (100 U/mL), neomycin (10 μg/mL), and amphotericin B (0.25 μg/mL).
The effect of compound 9 on cell viability and cell proliferation was evaluated using a WST-1 assay (Roche GmbH, Mannheim, Germany) based on the cleavage of the WST-1 reagent into formazan by mitochondrial dehydrogenases in metabolically active (viable) cells. […] The absorbance was measured at 440 and 650 nm using a microplate reader Infinite 200 PRO (TECAN).

hBGT1 wt = target: T2, hBGT1 wt (Homo sapiens, UniProt P48065); assay: [3H]GABA uptake assay, wild type hBGT1 transiently expressed in tsA201 cells
T2 construct: expressed in transfected cells; host or cells: tsA201 cells (transformed HEK293), transient expression
T2 sequence (P48065 1-614): T1 sequence (P48065 1-614 E52Y) with Y52E
Procedure: as §1, §2, §3

Question: What does the source list for `NC12CC(C(=O)O)(C1)C2` [Compound 9]?
Answer: pIC50 (hBGT1 E52Y): < 3.00; activity at mutant compared with wild type hBGT1 (hBGT1 E52Y; E52Y vs wt): complete loss of activity; effect on astrocyte survival and proliferation (WST-1) [1]: no effect on astrocyte survival and proliferation; pIC50 (hBGT1 wt): 4.47
